From US8129398B2 (priority 2008, dated 2012)

Molecular target: T1, HIV-integrase (Human immunodeficiency virus type 1 group M subtype B, UniProt P12497)
T1 construct: Recombinant integrase (0.26 ng) was incubated with the beads
Experiment: HIV-Integrase Inhibition Activity (SPA bead integration assay with P33 labeled target DNA)
Format: biochemical
Conditions: recombinant integrase, class symbols; read-out: in vitro activity
How it was run: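 Strand integration read as bead-proximity CPM after P33 target DNA (0.1 fmol) and inhibitor were added to washed integrase–substrate DNA complexes on SPA beads. Enzyme bound 90 min at 37° C; EDTA (10 mM final) terminated reaction; IC50 graded A/B/C.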

SMILES | IC50
Cc1cc(C(=O)NC23CCC(CC2)Cn2c3nc(C(=O)NCc3ccc(F)cc3)c(O)c2=O)nn1C [Example 24, 10-(((1,5-Dimethyl-1H-pyrazol-3-yl)carbonyl)amino)-N-(4-fluorobenzyl)-3-hydroxy-4-oxo-4,6,7,8,9,10-hexahydro-7,10-ethanopyrimido[1,2-a]azepine-2-carboxamide] | < 10 nM
CNC(=O)NC12CCC(CC1)Cn1c2nc(C(=O)NCc2ccc(F)c(C)c2)c(O)c1=O [Example 327, 7,10-Ethanopyrimido[1,2-a]azepine-2-carboxamide, N-[(4-fluoro-3-methylphenyl)methyl]-4,6,7,8,9,10-hexahydro-3-hydroxy-10-[[(methylamino)carbonyl]amino]-4-oxo-] | < 10 nM
Cc1cc(CNC(=O)c2nc3n(c(=O)c2O)CC2CCC3(NC(=O)[C@H]3CCN(C(=O)c4cc(C)n(C)n4)C3)CC2)ccc1F [Example 301, 7,10-Ethanopyrimido[1,2-a]azepine-2-carboxamide, 10-[[[(3S)-1-[(1,5-dimethyl-1H-pyrazol-3-yl)carbonyl]-3-pyrrolidinyl]carbonyl]amino]-N-[(4-fluoro-3-methylphenyl)methyl]-4,6,7,8,9,10-hexahydro-3-hydroxy-4-oxo-] | 10 to 100 nM
O=C(NCc1ccc(F)cc1)c1nc2n(c(=O)c1O)CC1CCC2(NC(=O)N2CCOCC2)CC1 [Example 22, N-(4-Fluorobenzyl)-3-hydroxy-10-((4-morpholinylcarbonyl)amino)-4-oxo-4,6,7,8,9,10-hexahydro-7,10-ethanopyrimido[1,2-a]azepine-2-carboxamide] | 10 to 100 nM
CNC(=O)N1CCCC1C(=O)NC12CCC(CC1)Cn1c2nc(C(=O)NCc2ccc(F)cc2)c(O)c1=O (stereo not shown) [Example 401] | < 10 nM
CN(C(=O)C(=O)NC12CCC(CC1)Cn1c2nc(C(=O)NCc2ccc(F)cc2)c(O)c1=O)C1CC1 [Example 82, N-Cyclopropyl-N′-(2-((4-fluorobenzyl)carbamoyl)-3-hydroxy-4-oxo-6,7,8,9-tetrahydro-7,10-ethanopyrimido[1,2-a]azepin-10(4H)-yl)-N-methylethanediamide] | < 10 nM
CN(C)C(=O)C(=O)NC12CCC(CC1)Cn1c2nc(C(=O)NCCc2ccc(O)cc2)c(O)c1=O [Example 347] | > 100 nM
O=C(NC12CCC(CC1)Cn1c2nc(C(=O)NCc2ccc(F)cc2)c(O)c1=O)C(=O)N1CCN(C(=O)c2ccccn2)CC1 [Example 140, N-(4-Fluorobenzyl)-3-hydroxy-4-oxo-10-((oxo(4-(2-pyridinylcarbonyl)-1-piperazinyl)acetyl)amino)-4,6,7,8,9,10-hexahydro-7,10-ethanopyrimido[1,2-a]azepine-2-carboxamide] | < 10 nM
Cc1cc(C(=O)N(C)C23CCC(CC2)Cn2c3nc(C(=O)NCc3ccc(F)cc3)c(O)c2=O)no1 [Example 154, N-(4-Fluorobenzyl)-3-hydroxy-10-(methyl((5-methyl-3-isoxazolyl)carbonyl)amino)-4-oxo-4,6,7,8,9,10-hexahydro-7,10-ethanopyrimido[1,2-a]azepine-2-carboxamide] | < 10 nM
Cn1cncc1CN1CCN(C(=O)C(=O)NC23CCC(CC2)Cn2c3nc(C(=O)NCc3ccc(F)cc3)c(O)c2=O)CC1 [Example 136, N-(4-Fluorobenzyl)-3-hydroxy-10-(((4-((1-methyl-1H-imidazol-5-yl)methyl)-1-piperazinyl)(oxo)acetyl)amino)-4-oxo-4,6,7,8,9,10-hexahydro-7,10-ethanopyrimido[1,2-a]azepine-2-carboxamide] | < 10 nM
CN(C)C(=O)C(=O)NC12CCC(CC1)Cn1c2nc(C(=O)NCCC2CCCN2C)c(O)c1=O (stereo not shown) [Example 336] | > 100 nM
O=C(NC12CCC(CCn3c1nc(C(=O)NCc1ccc(F)cc1)c(O)c3=O)C2)C(=O)N1CC[C@H](F)C1 (stereo partly drawn) [Example 207, 8,11-Methano-4H-pyrimido[1,2-a]azocine-2-carboxamide, N-[(4-fluorophenyl)methyl]-11-[[2-[(3S)-3-fluoro-1-pyrrolidinyl]-1,2-dioxoethyl]amino]-6,7,8,9,10,11-hexahydro-3-hydroxy-4-oxo-] | < 10 nM
CC(C)N(C)C(=O)C(=O)NC12CCC(CC1)Cn1c2nc(C(=O)NCc2ccc(F)cc2)c(O)c1=O [Example 105, N′-(2-((4-Fluorobenzyl)carbamoyl)-3-hydroxy-4-oxo-6,7,8,9-tetrahydro-7,10-ethanopyrimido[1,2-a]azepin-10(4H)-yl)-N-methyl-N-(1-methylethyl)ethanediamide] | < 10 nM
CN(CC1CCCO1)C(=O)C(=O)N(C)C12CCC(CC1)Cn1c2nc(C(=O)NCc2ccc(F)cc2)c(O)c1=O (stereo not shown) [Example 165, N-(2-((4-Fluorobenzyl)carbamoyl)-3-hydroxy-4-oxo-6,7,8,9-tetrahydro-7,10-ethanopyrimido[1,2-a]azepin-10(4H)-yl)-N,N′-dimethyl-N′-(tetrahydro-2-furanylmethyl)ethanediamide] | < 10 nM
Cc1cc(CNC(=O)c2nc3n(c(=O)c2O)CC2CCC3(NC(=O)c3ccccn3)CC2)ccc1F [Example 313, 7,10-Ethanopyrimido[1,2-a]azepine-2-carboxamide, N-[(4-fluoro-3-methylphenyl)methyl]-4,6,7,8,9,10-hexahydro-3-hydroxy-4-oxo-10-[(2-pyridinylcarbonyl)amino]-] | < 10 nM
CCN(CC)C(=O)C(=O)NC12CCC(CC1)Cn1c2nc(C(=O)NCc2ccc(F)cc2)c(O)c1=O [Example 97, N,N-Diethyl-N′-(2-((4-fluorobenzyl)carbamoyl)-3-hydroxy-4-oxo-6,7,8,9-tetrahydro-7,10-ethanopyrimido[1,2-a]azepin-10(4H)-yl)ethanediamide] | < 10 nM
O=C(NC12CCC(CC1)Cn1c2nc(C(=O)NCc2ccc(F)cc2)c(O)c1=O)C(=O)N1CCN(S(=O)(=O)c2ccc(S(=O)(=O)N3CCOCC3)cc2)CC1 [Example 149, N-(4-Fluorobenzyl)-3-hydroxy-10-(((4-((4-(4-morpholinylsulfonyl)phenyl)sulfonyl)-1-piperazinyl)(oxo)acetyl)amino)-4-oxo-4,6,7,8,9,10-hexahydro-7,10-ethanopyrimido[1,2-a]azepine-2-carboxamide] | < 10 nM
Cn1nnc(C(=O)NC23CCC(CC2)Cn2c3nc(C(=O)NCc3ccc(F)cc3)c(O)c2=O)n1 [Example 250, 7,10-Ethanopyrimido[1,2-a]azepine-2-carboxamide, N-[(4-fluorophenyl)methyl]-4,6,7,8,9,10-hexahydro-3-hydroxy-10-[[(2-methyl-2H-tetrazol-5-yl)carbonyl]amino]-4-oxo-] | < 10 nM
O=C(NC12CCC(CC1)Cn1c2nc(C(=O)NCc2ccc(F)cc2)c(O)c1=O)C(=O)N1CC(O)C1 [Example 65, N-(4-Fluorobenzyl)-3-hydroxy-10-(((3-hydroxy-1-azetidinyl) (oxo)acetyl)amino)-4-oxo-4,6,7,8,9,10-hexahydro-7,10-ethanopyrimido[1,2-a]azepine-2-carboxamide] | < 10 nM
Cc1cc(CNC(=O)c2nc3n(c(=O)c2O)CC2CCC3(NS(=O)(=O)c3cn(C)c(=O)n(C)c3=O)CC2)ccc1F [Example 293, 7,10-Ethanopyrimido[1,2-a]azepine-2-carboxamide, N-[(4-fluoro-3-methylphenyl)methyl]-4,6,7,8,9,10-hexahydro-3-hydroxy-4-oxo-10-[[(1,2,3,4-tetrahydro-1,3-dimethyl-2,4-dioxo-5-pyrimidinyl)sulfonyl]amino]-] | < 10 nM
O=C(NCc1ccc(F)cc1)c1nc2n(c(=O)c1O)CC1CCC2(NC(=O)C2CCCN2S(=O)(=O)C2CCCC2)CC1 (stereo not shown) [Example 408] | < 10 nM
CN(C)C(=O)C(=O)NC12CCC(CCn3c1nc(C(=O)NCc1ccc(F)cc1)c(O)c3=O)C2 (single isomer, unassigned) [Example 413, Ethanediamide, N′-[2-[[[(4-fluorophenyl)methyl]amino]carbonyl]-7,8,9,10-tetrahydro-3-hydroxy-4-oxo-8,11-methano-4H-pyrimido[1,2-a]azocin-11(6H)-yl]-N,N-dimethyl-] | < 10 nM
Cc1cc(CNC(=O)c2nc3n(c(=O)c2O)CC2CCC3(NC(=O)C(=O)N(C)C)CC2)ccc1F [Example 113, N′-(2-((4-Fluoro-3-methylbenzyl)carbamoyl)-3-hydroxy-4-oxo-6,7,8,9-tetrahydro-7,10-ethanopyrimido[1,2-a]azepin-10(4H)-yl)-N,N-dimethylethanediamide] | < 10 nM
COC[C@H]1CCCN1C(=O)C(=O)NC12CCC(CC1)Cn1c2nc(C(=O)NCc2ccc(F)cc2)c(O)c1=O [Example 88, N-(4-Fluorobenzyl)-3-hydroxy-10-((((2R)-2-(methoxymethyl)-1-pyrrolidinyl)(oxo)acetyl)amino)-4-oxo-4,6,7,8,9,10-hexahydro-7,10-ethanopyrimido[1,2-a]azepine-2-carboxamide] | < 10 nM
CN(C)C(=O)C(=O)NC12CCC(CC1)Cn1c2nc(C(=O)NCc2ccc(F)c(C(F)F)c2)c(O)c1=O [Example 124, N′-(2-((3-(Difluoromethyl)-4-fluorobenzyl)carbamoyl)-3-hydroxy-4-oxo-6,7,8,9-tetrahydro-7,10-ethanopyrimido[1,2-a]azepin-10(4H)-yl)-N,N-dimethylethanediamide] | < 10 nM
CCN(CC)C(=O)C(=O)NC12CCC(CCn3c1nc(C(=O)NCc1ccc(F)cc1)c(O)c3=O)C2 (stereo not shown) [Example 201] | < 10 nM
Cn1cccc1C(=O)C(=O)NC12CCC(CC1)Cn1c2nc(C(=O)NCc2ccc(F)cc2)c(O)c1=O [Example 45, N-(4-Fluorobenzyl)-3-hydroxy-10-(((1-methyl-1H-pyrrol-2-yl) (oxo)acetyl)amino)-4-oxo-4,6,7,8,9,10-hexahydro-7,10-ethanopyrimido[1,2-a]azepine-2-carboxamide] | < 10 nM
CCOC(=O)N1CCCC1C(=O)NC12CCC(CC1)Cn1c2nc(C(=O)NCc2ccc(F)cc2)c(O)c1=O (stereo not shown) [Example 397] | < 10 nM
